Laboratory results published in ChEMBL document CHEMBL3784987, “Synthesis and preliminary evaluation of 5,7-dimethyl-2-aryl-3H-pyrrolizin-3-ones as angiogenesis inhibitors” (Bioorg Med Chem Lett, 2016).
The source made the active and inactive calls. No cut-off for these calls is given here.

Experiments:
HUVEC [1] = assay: Antiangiogenic activity in human HUVEC cells assessed as angiogenesis rate at 10 uM after 5 hrs by endothelial tube formation assay relative to control; format: functional
Thoracic aorta [2] = assay: Antiangiogenic activity in Fischer 344 rat thoracic aorta assessed as field of view occupancy at 10 microg/ml after 5 days light microscopic analysis(reference value: 86 %); format: functional
[3] = Cytotoxicity against mouse SVEC4-10 cells assessed as cell viability after 24 hrs by MTS assay; format: cell-based; conditions: SVEC4-10, 24 h
HUVEC [4] = assay: Antiangiogenic activity in human HUVEC cells assessed as angiogenesis rate at 1 uM after 5 hrs by endothelial tube formation assay relative to control; format: functional
Thoracic aorta [5] = assay: Antiangiogenic activity in Fischer 344 rat thoracic aorta assessed as field of view occupancy at 1 microg/ml after 5 days by light microscopic analysis (reference value: 86 %); format: functional

SMILES	Activity (HUVEC [1])	other results
COc1cccc(C2=Cc3c(C)cc(C)n3C2=O)c1	inactive	
Cc1cc(C)n2c1C=C(c1ccccc1F)C2=O	Active	
COc1ccccc1C1=Cc2c(C)cc(C)n2C1=O	Active	
Cc1cc(C)n2c1C=C(c1cccc(F)c1)C2=O	inactive	
Cc1cc(C)n2c1C=C(c1ccc(Cl)cc1)C2=O	inactive	
Cc1cc(C)n2c1C=C(c1ccccc1Cl)C2=O	inactive	
Cc1cc(C)n2c1C=C(c1cccc([N+](=O)[O-])c1)C2=O	inactive	
Cc1cc(C)n2c1C=C(c1cccc(Cl)c1)C2=O	inactive	
Cc1ccccc1C1=Cc2c(C)cc(C)n2C1=O	Active	
Cc1cc(C)n2c1C=C(c1ccccc1Br)C2=O	Active	
Cc1cc(C)n2c1C=C(c1ccccc1)C2=O	68.4%	Activity (Thoracic aorta [2]): Active
Cc1cc(C)n2c1C=C(c1ccc(Br)cc1)C2=O	inactive	
CCN(CC)CCNC(=O)c1c(C)[nH]c(/C=C2\C(=O)Nc3ccc(F)cc32)c1C [SUNITINIB]	Active	IC50 [3]: 8 µM
Cc1cccc(C2=Cc3c(C)cc(C)n3C2=O)c1	inactive	
Cc1cc(C)n2c1C=C(c1ccc(F)cc1)C2=O	inactive	
Cc1cc(C)n2c1C=C(c1ccccc1[N+](=O)[O-])C2=O	29.7%	Activity (HUVEC [4]): 74%; Activity (Thoracic aorta [2]): 4%; IC50 [3]: 32 µM; Activity (Thoracic aorta [5]): inactive
Cc1cc(C)c(/C=C2\C(=O)Nc3ccccc32)[nH]1 [SEMAXANIB]		Activity (Thoracic aorta [2]): 10%; Activity (Thoracic aorta [5]): 61%
Cc1cc(C)n2c1C=C(c1ccc([N+](=O)[O-])cc1)C2=O	inactive	
Cc1cc(C)n2c1C=C(c1cccc(Br)c1)C2=O	inactive	
Cc1ccc(C2=Cc3c(C)cc(C)n3C2=O)cc1	inactive	
